The target in the assay is Proto-oncogene tyrosine-protein kinase Src (Homo sapiens, UniProt P12931).
Proto-oncogene tyrosine-protein kinase Src, sequence (P12931 2-536 limits assumed): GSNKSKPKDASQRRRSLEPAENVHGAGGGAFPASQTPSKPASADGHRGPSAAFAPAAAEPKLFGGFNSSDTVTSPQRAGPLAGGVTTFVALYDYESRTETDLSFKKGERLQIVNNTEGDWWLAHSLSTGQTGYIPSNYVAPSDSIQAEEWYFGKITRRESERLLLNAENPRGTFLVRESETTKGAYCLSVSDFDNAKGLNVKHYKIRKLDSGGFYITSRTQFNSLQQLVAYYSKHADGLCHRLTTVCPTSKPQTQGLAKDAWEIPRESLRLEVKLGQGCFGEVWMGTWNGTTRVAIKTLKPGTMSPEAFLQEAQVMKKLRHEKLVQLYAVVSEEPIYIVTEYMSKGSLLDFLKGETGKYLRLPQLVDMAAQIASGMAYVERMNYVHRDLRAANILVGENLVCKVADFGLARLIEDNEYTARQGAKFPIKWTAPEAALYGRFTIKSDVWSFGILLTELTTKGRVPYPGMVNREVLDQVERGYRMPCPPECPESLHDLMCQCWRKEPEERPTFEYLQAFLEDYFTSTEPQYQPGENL

Regarding `Cc1ccc(NC(=O)c2ccc(CN3CCN(C)CC3)cc2)cc1C#Cc1nn(C(C)C)c2ncnc(N)c12`, the IC50 was 4 nM.

(Values after ChEMBL document CHEMBL5726853, “3-acetylenyl-pyrazole-pyrimidine derivative, and preparation method therefor and uses thereof” (2019).)
